According to patent publication EP1068184B1, “N-ARYLOXYETHYLAMINE DERIVATIVES FOR THE TREATMENT OF DEPRESSION” (Wyeth, priority 1998, dated 1999):

Key:
[1] = biological target: T1, human 5-HT1A receptor subtype (Homo sapiens, UniProt P08908); test: 5-HT1A receptor binding assay with [3H]8-OH-DPAT on membranes of 5-HT1A.CHO cells; conditions: [3H]8-OH-DPAT 1.5 nM, CHO cell membranes
T1 construct: expressed in transfected cells
T1 sequence (P08908 1-422): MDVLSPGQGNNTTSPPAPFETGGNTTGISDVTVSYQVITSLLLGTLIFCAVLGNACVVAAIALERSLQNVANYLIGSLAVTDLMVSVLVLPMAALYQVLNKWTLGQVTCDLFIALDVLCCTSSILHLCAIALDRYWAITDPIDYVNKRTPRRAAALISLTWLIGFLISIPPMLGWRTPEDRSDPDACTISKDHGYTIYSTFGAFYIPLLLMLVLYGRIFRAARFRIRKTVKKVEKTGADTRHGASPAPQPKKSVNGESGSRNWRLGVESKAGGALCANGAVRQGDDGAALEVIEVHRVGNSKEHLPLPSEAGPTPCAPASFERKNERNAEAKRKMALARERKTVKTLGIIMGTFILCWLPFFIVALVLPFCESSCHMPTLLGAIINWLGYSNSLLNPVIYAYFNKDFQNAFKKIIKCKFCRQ
Protocol: (§1) The PCR cloning of the human 5-HT1A receptor subtype from a human genomic library has been described previously Chanda et al., Mol. Pharmacol., 43:516 (1993). A stable Chinese hamster ovary cell line expressing the human 5-HT1A receptor subtype (5-HT1A.CHO cells) was employed throughout this study. Cells were maintained in DMEM supplemented with 10% foetal calf serum, non-essential amino acids and penicillin/ streptomycin.
Cells were grown to 95-100% confluency as a monolayer before membranes were harvested for binding studies. Cells were gently scraped from the culture plates, transferred to centrifuge tubes, and washed twice by centrifugation (2000 rpm for 10 min., 4°C) in buffer (50 mM Tris; pH 7.5). The resulting pellets were aliquoted and placed at -80°C. On the day of assay, the cells were thawed on ice, and resuspended in buffer. Studies were conducted using [^3H]8-OH-DPAT as the radioligand. The binding assay was performed in 96 well microtiter plates in a final total volume of 250 µL of buffer. Competition experiments were performed by using 7 concentrations of unlabelled drug and a final ligand concentration of 1.5 nM . Non-specific binding was determined in the presence of 10 µM 5HT. Saturation analysis was conducted by using [^3H]8-OH-DPAT at concentrations ranging from 0.3-30 nM. Following a 30 minute incubation at room temperature, the reaction was terminated by the addition of ice cold buffer and rapid filtration using a M-96 Brandel Cell Harvester (Gaithersburg, MD) through a GF/B filter presoaked for 30 minutes in 0.5% polyethyleneimine.

serotonin transporter = biological target: T2, serotonin transporter (Rattus norvegicus, UniProt P31652); test: serotonin transporter affinity, 3H-paroxetine binding to frontal cortical membranes; parameters: species or system male Sprague-Dawley rats; conditions: 3H-paroxetine 0.1 nM, rat frontal cortical membranes; read-out: ST (Ki)
T2 construct: frontal cortical membranes prepared from male Sprague-Dawley rats; from tissue; host or cells: rat frontal cortex membranes
Protocol: Briefly, frontal cortical membranes prepared from male Sprague-Dawley rats were incubated with ^3H-paroxetine (0.1 nM) for 60 min at 25°C. All tubes also contained either vehicle, test compound (one to eight concentrations), or a saturating concentration of fluoxetine (10 µM) to define specific binding. All reactions are terminated by the addition of ice cold Tris buffer followed by rapid filtration using a Tom Tech filtration device to separate bound from free ^3H-paroxetine.

5-HT1A cloned receptor = biological target: T3, 5-HT1A cloned receptor (Homo sapiens, UniProt P08908); test: [35S]-GTPγS binding assay on 5-HT1A cloned receptor membrane fragments; type: biochemical; conditions: maximum agonist response defined by excess 8-OH-DPAT
T3 construct: expressed in transfected cells
T3 sequence (P08908 1-422): T1 sequence (P08908 1-422)
Protocol: The [^35S]-GTPγS binding assay was similar to that used by Lazareno and Birdsall, Br. J. Pharmacol. 109:1120 (1993). Briefly, 5-HT1A cloned receptor membrane fragments (as used for 5-HT1A receptor binding assays) were stored at -70 °C until needed. When needed, membranes were rapidly thawed, centrifuged at 40,000 x g for 10 minutes and resuspended at 4 °C for 10 minutes in assay buffer (25 mM HEPES, 3 mM MgCl2, 100 mM NaCI, 1 mM EDTA, 10 uM GDP, […] DTT, pH 8.0). These membranes were then incubated for 30 min at 30 °C with [^35S]GTPgS (1 nM) in the presence of vehicle, test compound (one to eight concentrations), or excess 8-OH-DPAT to define maximum agonist response. All reactions are terminated by the addition of ice cold Tris buffer followed by rapid filtration using a Tom Tech® filtration device to separate bound from free [^35S]GTPgS. Agonists produce an increase in the amount of [^35S]GTPgS bound whereas antagonists produce no increase in binding. Bound radioactivity was counted and analyzed as above.

[2] = biological target: T1, human 5-HT1A receptor subtype; test: cAMP formation in forskolin-treated cells (cAMP SPA assay); type: cell-based; conditions: forskolin 1 uM, 10 min at 37°C
Protocol: as §1
The following assays were performed by incubating the cells with DMEM containing 25 mM HEPES, 5 mM theophylline and 10 µM pargyline for a period of 20 minutes at 37°C. Functional activity was assessed by treating the cells with forskolin (1 uM final concentration) followed immediately by test compound (6 concentrations) for an additional 10 min at 37°C. In separate experiments, 6 concentrations of antagonist were preincubated for 20 min prior to the addition of 10 nM 8-OH-DPAT and forskolin. The reaction was terminated by removal of the media and addition of 0.5 ml ice cold assay buffer. Plates were stored at -20°C prior to assessment of cAMP formation by a cAMP SPA assay (Amersham).

T2 sequence (P31652 whole entry): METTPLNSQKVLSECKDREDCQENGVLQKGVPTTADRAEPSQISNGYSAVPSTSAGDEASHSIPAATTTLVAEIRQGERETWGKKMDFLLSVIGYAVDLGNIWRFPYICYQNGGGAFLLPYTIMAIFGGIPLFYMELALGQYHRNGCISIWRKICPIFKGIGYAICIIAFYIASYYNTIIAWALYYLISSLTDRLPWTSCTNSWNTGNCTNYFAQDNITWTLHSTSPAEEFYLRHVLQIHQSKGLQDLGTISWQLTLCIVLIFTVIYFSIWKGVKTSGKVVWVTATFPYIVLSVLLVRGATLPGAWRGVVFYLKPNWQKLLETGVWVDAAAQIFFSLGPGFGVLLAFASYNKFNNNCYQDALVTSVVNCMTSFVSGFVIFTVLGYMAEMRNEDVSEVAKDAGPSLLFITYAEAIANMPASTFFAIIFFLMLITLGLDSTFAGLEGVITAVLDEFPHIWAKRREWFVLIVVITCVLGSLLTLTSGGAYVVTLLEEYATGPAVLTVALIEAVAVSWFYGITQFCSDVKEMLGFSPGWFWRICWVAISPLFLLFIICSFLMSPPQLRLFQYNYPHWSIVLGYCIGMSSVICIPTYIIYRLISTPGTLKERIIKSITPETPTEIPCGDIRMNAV

| SMILES | Ki [1] | Ki (serotonin transporter) | Emax (5-HT1A cloned receptor) | Emax [2] |
| --- | --- | --- | --- | --- |
| N#Cc1ccc2[nH]cc([C@H]3CC[C@H](NCCOc4cc(F)cc5c4OCCC5)CC3)c2c1 [Example 5f, 3-{(1,4-trans)-4-[2-(6-Fluoro-chroman-8-yloxy)-ethylamino]-cyclohexyl}-1H-indole-5-carbonitrile] | 10.1 nM | 2.6 nM | 30% | 0% |
| Fc1ccc2[nH]cc([C@H]3CC[C@H](NCCOc4cccc5c4OCCO5)CC3)c2c1 [Example 4b] | 18.9 nM | 1.12 nM | – | 61% |
| Fc1cc2c(c(OCCN[C@H]3CC[C@H](c4c[nH]c5ccc(F)cc54)CC3)c1)OCCC2 [Example 5b, [2-(6-Fluoro-chroman-8-yloxy)-ethyl]-[(1,4-trans)-4-(5-fluoro-1H -indol-3-yl)-cyclohexyl]-amine] | 19.4 nM | 1.52 nM | 22% | 0% |
| Fc1ccc2[nH]cc([C@H]3CC[C@H](NCCOc4cccc5[nH]ccc45)CC3)c2c1 [Example 3b] | 1.08 nM | 2.5 nM | 62% | 90% |
| COc1ccc(F)cc1OCCN[C@H]1CC[C@H](c2c[nH]c3cc(F)ccc32)CC1 [Example 2b, [(1,4-trans)-4-(6-Fluoro-1H-indol-3-yl)-cyclohexyl]-[2-(5-fluoro-2-methoxy-phenoxy)-ethyl]-amine] | 47.8 nM | 0.42 nM | 0% | 0% |
